Data set [1] has as its system isolated right auricle of a guinea pig. As to the kind of experiment: Chronotropic action (bradycardizing effect) on the isolated right auricle of a guinea pig. The note with it: 1·10^-4 g·ml^-1, 30 minutes contact, % reduction of beats/minute; for inhibition at 100 µg/mL: Cavia porcellus, 0.5 h. As for the experimental part: Guinea pigs of either sex were killed with a blow and bled, the right auricle was swiftly removed and immediately immersed in a Krebs-Henseleit solution, thermostatically controlled to 36° C.±0.5° C. and aerated with a mixture of O2 and CO2 (95% and 5%). The preparation was connected to an isometric myograph (F-50 Narco) then to a recording system (Physiograpg M-K III--Narco).
A 60 minute delay was required for ensuring chronotropic action stability.
The compounds (I) of the invention and the pharmaceutically acceptable salts thereof were added to the nutritive medium in a concentration of 1.10^-4 g.ml^-1 and left in contact with the auricle for 30 minutes. The action was evaluated by the percentage reduction of the number of beats/minute (beat/min.) before administration of the compound under test.

Data set [2] in a line: Toxicity by a single intravenous administration in mice. The settings on record: mouse, in vivo; single intravenous administration, mice; Litchfield and Wilcoxon; read-out: LD50 (95% confidence limit). Type of data set: in vivo. The procedure:
(§1) The toxicity of the compounds of the invention was also tested. It concerns more precisely the test of toxicity by a single administration made for all the compounds on male mice, E.O.P.S. of SWISS strain (5 animals per batch).
(§2) The compounds under test were solubilized in a […] aqueous solution of NaCl, at various concentrations and the solutions obtaoned were injected intravenously at the rate of 10 ml.kg^-1 of body weight.
(§3) The administration was made in 20 seconds, the animals being kept under clinical observation for 3 hours after administration, then daily for 7 days.

Data set [3] has as its system cardiac hemodynamics in chronically implanted wakeful dogs. As to the kind of experiment: Cardiac hemodynamics in chronically implanted wakeful dogs. It counts as in vivo, dog. As for the experimental part: (§4) The positive inotropic effect of compounds (I) of the invention and the pharmaceutically acceptable salts thereof were further tested on the cardiac dynamics of an anaesthetized animal and on a wakeful chronically implanted animal.
b. Test on chronically implanted wakeful dogs
The compounds were tested orally and intravenously on dogs previously implanted with a pressure probe placed in the left ventricle (Janssen) and a Doppler rate sensor placed on the aorta, the tests being carried out at the minium 8 days after implantation.

The target of data set [4] is T1, isolated left auricle of a guinea pig (cardiac inotropic function β1) (Cavia porcellus, UniProt H0W3H1).
T1 construct: the left auricle being swiftly removed and immersed immediately in a Krebs-Henseleit solution; from tissue; host or cells: isolated left auricle of guinea pigs of either sex
T1 sequence (H0W3H1 1-470): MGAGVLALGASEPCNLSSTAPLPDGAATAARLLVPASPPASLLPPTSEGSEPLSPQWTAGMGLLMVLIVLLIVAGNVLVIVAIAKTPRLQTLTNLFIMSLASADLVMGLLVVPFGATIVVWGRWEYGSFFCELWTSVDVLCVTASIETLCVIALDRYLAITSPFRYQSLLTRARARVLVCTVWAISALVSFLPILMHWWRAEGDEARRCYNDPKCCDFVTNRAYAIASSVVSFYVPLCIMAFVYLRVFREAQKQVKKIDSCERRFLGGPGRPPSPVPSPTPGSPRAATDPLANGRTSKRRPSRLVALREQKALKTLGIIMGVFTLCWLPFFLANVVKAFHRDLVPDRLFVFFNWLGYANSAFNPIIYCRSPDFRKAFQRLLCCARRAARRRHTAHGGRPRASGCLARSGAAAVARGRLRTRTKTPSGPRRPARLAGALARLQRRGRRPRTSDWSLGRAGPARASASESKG
Description: Positive inotropic effect: contractile force of the isolated left auricle of a guinea pig. The source says:
The in vitro study was made on the contractile force of the isolated left auricle of a guinea pig. The technique used was that of P. LUMBEY et Coll. […] It allowed the cardiac inotropic function β1 to be studied.
The preparation was connected to an isometric myograph (F-50 Narco), then to a recording system (Physiograph M-K III Narco). For the whole duration of the test the auricle was electrically stimulated by a neurostimulator (Equipement Industriel II) at the frequence of 90 to 120 beats/min.

In data set [5] the test system is cardiac hemodynamics in anaesthetized dogs. Description: Cardiac hemodynamics in dogs anaesthetized with Nembutal, open thorax. It counts as in vivo, dog. As for the experimental part:
as §4
(§5) a. Test on a dog anaesthetized with Nembutal
(§6) Two test protocols were carried out, one on a dog with open thorax and the other on a dog with closed thorax. The left intraventricular pressure (PIVG) and aortic pressure (supra sigmoid) (PAO) were measured with high fidelity micro-sensors (Millar 5F), the first derivative of the left ventricular pressure (dP/dt) was recorded as well as the electrocardiogram. The instantaneous alveolar PCO2 was continuously measured. Finally, different blood flow rates were measured, namely the femoral and carotid flow rates in the animals with closed thorax and the aortic and coronary flow rates in those on which a thoracotomy had been performed. These different rates were measured by the electro-magnetic method.

Data set [6] concerns cardiac hemodynamics of anaesthetized dogs. Description: Cardiac hemodynamics in dogs anaesthetized with Nembutal, closed thorax. Type of data set: in vivo, dog. As for the experimental part:
as §4, §5, §6
An analysis of the dose/effect relation on three dogs (see results shown in table V below) confirmed the results obtained on dogs with open thorax for compound 1a.

In data set [7] the test system is male mice, E.O.P.S. of SWISS strain. As to the kind of experiment: Toxicity by a single intravenous administration in mice. The settings on record: single i.v. administration; symptoms observed at the dose where there was no mortality. It counts as in vivo. As for the experimental part: as §1, §2, §3
The mark [8] stands for this setting: 0.5 mg·kg^-1 i.v., closed thorax.

16 compounds from patent US4673675A, “1-(2-pyridyl) 4-cycloalkylmethyl piperazines having cardiotropic activity” (Innothera, priority 1984, dated 1987) can be followed below.

Broadly, the inhibition is the drop in the measured response relative to a control, in per cent. Lower therefore signals little suppression. The LD50 is the dose at which mortality reaches 50%. `CC1CN(CCCN2CCN(c3ccccn3)CC2)CC(C)O1` (stereo not drawn) [Compound 12] returned an inhibition at 100 µg/mL in data set [1] of 0%. For the same compound, in data set [2], the LD50 at 168 h came out at 149 mg/kg.

With `c1ccc(N2CCN(CC3CCC3)CC2)nc1` [Compound 2], the inhibition at 100 µg/mL in data set [1] came out at 7%. Besides, the LD50 at 168 h in data set [2] is 67 mg/kg.

Consider `c1ccc(N2CCN(CC3CC3)CC2)nc1` [Compound 1a, 1-(2-pyridyl) 4-cyclopropylmethyl piperazine], for which the inhibition at 100 µg/mL in data set [1] was 24%. Besides, the “increase of the dP/dt+” value in data set [3] (1 mg.kg^-1 intravenously) worked out at 136%. In addition, the “PIVG Syst. (left intraventricular pressure) modification” value in data set [3] (5 mg·kg^-1 p.o.) was “+15%”. In data set [3] (10 mg·kg^-1 p.o.), the “D.A.O. (aortic flow rate) modification” value was “+27%”; the “F.C. (heartbeat rate, cardiac frequency) modification” value is listed as “+45%”; the “PIVG Syst. (left intraventricular pressure) modification” value was “+26%”; the “dP/dt+ (first derivative of the left ventricular pressure) modification” value is reported as “+55%”. Moreover, in data set [3] (5 and 10 mg.kg^-1 orally (results approximately similar for both doses)), the “increase of dP/dt+/P” value came to 32%. In addition, the Emax in data set [4] (guinea pig, read-out: α (intrinsic activity)) stood at 60 ± 30%. For the same compound, the EC50 in data set [4] (negative log. of the molar concentration producing 50% of maximum action, stimulated at 90 to 120 beats/min, read-out: pD2 (converted)) is 20.9 µM. Besides, in data set [5] (0.5 mg·kg^-1 i.v.), the other parameters measured entry is reported as “did not vary significantly” and the “time of the acme of the action after injection” value came out at 45 min. Moreover, in data set [5] (0.5 mg·kg^-1 i.v., significant), the “decrease of left ventricular telediastolic pressure” value came to 28%. Also, in data set [5] (1 mg·kg^-1 i.v.), the “D.A.O. (aortic flow rate) modification” value was “+23%”, the “V.E.S. (systolic ejection volume) modification” value is recorded as “+13%” and the “time following injection during which dP/dt increased significantly” value was determined as 90 min. For the same compound, the “dP/dt+ (first derivative of the left ventricular pressure) modification” value in data set [5] (1 mg·kg^-1 i.v., significant) is “+31%”. Besides, the LD50 at 168 h in data set [2] came to 47 mg/kg. In data set [6] (setting [8]), the “P.Ao m (average aortic pressure) modification” value was “+11%” and the “PtdVG (left ventricular telediastolic pressure) modification” value is given as -35%. Besides, in data set [6] (2 mg·kg^-1 i.v., closed thorax), the “P.Ao m (average aortic pressure) modification” value was “+8%”, the “PtdVG (left ventricular telediastolic pressure) modification” value is -31% and the “dP/dt+ (first derivative of the left ventricular pressure) modification” value is “+28%”. The respiratory analeptic effect result in data set [6] (anaesthetized dogs, i.v.) is “appreciable and durable respiratory analeptic effect”. In addition, in data set [6] (i.v., closed thorax), the “duration of the positive inotropic effect” value is reported as “exceeds three”. Also, in data set [6] (i.v., closed thorax, increasing the dose did not increase the effect), the “dose at which the acme of the positive inotropic effect appeared” value amounted to 0.5 mg/kg.

For the compound `c1ccc(N2CCN(CCCN3CCCC3)CC2)nc1` [Compound 8], at 100 µg/mL the inhibition in data set [1] was 20%. Besides, the LD50 at 168 h in data set [2] was 142 mg/kg.

In data set [1], `CCN(CC)CCCN1CCN(c2ccccn2)CC1` [Compound 7] had an inhibition at 100 µg/mL of 16%. In addition, the Clinical symptomatology result in data set [7] is “Cyanosis, apnoea”. For the same compound, the LD50 at 168 h in data set [2] stood at 96 mg/kg.

In turn, `O=C(CN1CCN(c2ccccn2)CC1)Nc1cccc(C(F)(F)F)c1` [Compound 16] returned an inhibition at 100 µg/mL in data set [1] of 18%. Besides, the LD50 at 168 h in data set [2] worked out at 109 mg/kg.

With `c1ccc(N2CCN(CCN3CCCCCC3)CC2)nc1` [Compound 6], the “Reduction of the chronotropic effect” value in data set [1] is on record as “Arrhythmia”. The LD50 at 168 h in data set [2] was determined as 84 mg/kg.

In the case of `c1ccc(N2CCN(CC3CCCCC3)CC2)nc1` [Compound 3], in data set [1], the inhibition at 100 µg/mL was determined as 13%. Further, the Clinical symptomatology result in data set [7] is “Hypersensitivity, stereotypy”. In data set [2], the LD50 at 168 h turned out to be 81 mg/kg.

As for `COc1cc(CN2CCN(c3ccccn3)CC2)cc(OC)c1OC` [Compound 17], the inhibition at 100 µg/mL in data set [1] was found to be 31%. Further, the LD50 at 168 h in data set [2] was 130 mg/kg.

Regarding `CCN(CC)CC(C)N1CCN(c2ccccn2)CC1` (stereo not drawn) [Compound 13], the “Reduction of the chronotropic effect” value in data set [1] is listed as “Arrhythmia”. Further, the 50% lethal dose (LD50) at 168 h in data set [2] was 76 mg/kg.

As to `c1ccc(N2CCN(CCCN3CCCCCC3)CC2)nc1` [Compound 10], in data set [1], at 100 µg/mL the inhibition was 0%. Further, the LD50 at 168 h in data set [2] is 74 mg/kg.

On to `O=C(CN1CCN(c2ccccn2)CC1)Nc1cc(F)cc(F)c1` [Compound 15], for which the inhibition at 100 µg/mL in data set [1] was found to be 0%.

Compound `Clc1c(CN2CCN(c3ccccn3)CC2)ccc2c1OCO2` [Compound 18] yielded an inhibition at 100 µg/mL in data set [1] of 11%.

In turn, `O=C(CN1CCN(c2ccccn2)CC1)Nc1cccc(F)c1` [Compound 14] yielded an inhibition at 100 µg/mL in data set [1] of 18%. Besides, the Clinical symptomatology result in data set [7] is “Apnoea, sedation”. Moreover, the 50% lethal dose (LD50) at 168 h in data set [2] was 129 mg/kg.

Consider `c1ccc(N2CCN(CCCN3CCOCC3)CC2)nc1` [Compound 11], for which the “Reduction of the chronotropic effect” value in data set [1] is “Arrhythmia”.

As to `CC(C)N(CCN1CCN(c2ccccn2)CC1)C(C)C` [Compound 4], in data set [1], the inhibition at 100 µg/mL was found to be 9%. In data set [7], the Clinical symptomatology result is listed as “Cyanosis, starts”. Further, the LD50 at 168 h in data set [2] was 95 mg/kg.
